From ChEMBL document CHEMBL5126517, “Structure-Activity Relationship in the Leucettine Family of Kinase Inhibitors” (J Med Chem, 2022)

Molecular target: Glycogen synthase kinase-3 (Sus scrofa, UniProt B2LUN4+I6LNT8)
Experiment: Inhibition of porcine brain GSK-3alpha/beta using YRRAAVPPSPSLSRHSSPHQpSEDEEE as substrate incubated for 30 mins in presence of ATP by scintillation counting method
Assay type: tissue-based
Conditions: not given

SMILES	IC50
CCCNC1=N/C(=C\c2ccc3c(c2)OCO3)C(=O)N1C	1400 nM

Molecular target: Dual specificity protein kinase CLK3 (Mus musculus, UniProt O35492)
Sequence (O35492 whole entry, the tested form may be a part): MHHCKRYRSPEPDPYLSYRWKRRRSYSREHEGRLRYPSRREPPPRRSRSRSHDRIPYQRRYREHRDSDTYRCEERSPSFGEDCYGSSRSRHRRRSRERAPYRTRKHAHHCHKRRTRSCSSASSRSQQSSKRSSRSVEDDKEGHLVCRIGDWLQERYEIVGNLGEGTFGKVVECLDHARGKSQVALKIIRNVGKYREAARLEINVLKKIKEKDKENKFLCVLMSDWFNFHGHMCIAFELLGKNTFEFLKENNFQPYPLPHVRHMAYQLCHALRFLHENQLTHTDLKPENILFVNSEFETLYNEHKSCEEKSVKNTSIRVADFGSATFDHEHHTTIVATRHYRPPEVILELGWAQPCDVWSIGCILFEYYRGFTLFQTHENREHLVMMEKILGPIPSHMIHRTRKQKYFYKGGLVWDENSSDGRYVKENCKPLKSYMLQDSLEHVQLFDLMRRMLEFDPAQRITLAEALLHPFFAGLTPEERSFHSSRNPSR
Experiment: Inhibition of GST-fused mouse recombinant CLK3 expressed in Escherichia coli using GRSRSRSRSRSR peptide as substrate incubated for 30 mins in presence of ATP by scintillation counting method
Conditions: not given

SMILES	IC50
C/C(=C1/N=C(Nc2ccccc2)NC1=O)c1ccc2c(c1)OCO2	> 10000 nM
CCCNC1=N/C(=C\c2ccc3c(c2)OCO3)C(=O)N1C	2500 nM

Molecular target: T1, Dual specificity tyrosine-phosphorylation-regulated kinase 3 (Homo sapiens, UniProt O43781)
T1 sequence (O43781 whole entry): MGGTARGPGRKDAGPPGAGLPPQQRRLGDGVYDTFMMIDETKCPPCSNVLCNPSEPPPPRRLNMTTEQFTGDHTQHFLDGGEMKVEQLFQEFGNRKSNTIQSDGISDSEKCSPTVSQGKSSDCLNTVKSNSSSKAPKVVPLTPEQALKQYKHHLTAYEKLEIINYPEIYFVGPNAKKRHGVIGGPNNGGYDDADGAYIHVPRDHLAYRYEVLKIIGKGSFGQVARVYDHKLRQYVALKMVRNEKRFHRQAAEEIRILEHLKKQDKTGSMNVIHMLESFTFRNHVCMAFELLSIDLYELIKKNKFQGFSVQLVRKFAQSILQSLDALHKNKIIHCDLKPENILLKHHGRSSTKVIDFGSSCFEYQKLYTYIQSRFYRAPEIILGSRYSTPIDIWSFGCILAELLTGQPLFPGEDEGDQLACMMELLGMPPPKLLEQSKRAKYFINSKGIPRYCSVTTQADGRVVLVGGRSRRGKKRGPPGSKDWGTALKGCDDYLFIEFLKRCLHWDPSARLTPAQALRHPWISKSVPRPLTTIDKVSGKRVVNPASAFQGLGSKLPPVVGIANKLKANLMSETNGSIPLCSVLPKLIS
Experiment: Inhibition of GST-fused human recombinant DYRK3 expressed in Escherichia coli using GRSRSRSRSRSR peptide as substrate incubated for 30 mins in presence of ATP by scintillation counting method
Conditions: not given

SMILES	IC50
COc1ccc(/C=C2\N=C(Nc3ccccc3)NC2=O)cc1	2100 nM
CCCNC1=N/C(=C\c2ccc3c(c2)OCO3)C(=O)N1C	1200 nM

System: HT-22
Experiment: Modulation of CLK1 pre-mRNA splicing in mouse HT-22 cells assessed as inclusion of CLK1 exon 4 by measuring change in threshold cycle at 10 uM measured after 4 hrs by real time PCR analysis
Assay type: cell-based
Conditions: filed as modulator

SMILES	deltaCT
C/C(=C1/N=C(Nc2ccccc2)NC1=O)c1ccc2c(c1)OCO2	0.38
CCCNC1=N/C(=C\c2ccc3c(c2)OCO3)C(=O)N1C	3.72

System: not listed separately
Experiment: Neurotoxicity against mouse HT-22 cells assessed as cell survival at 20 uM treated for 24 hrs by MTS assay
Assay type: toxicity, cell-based
Conditions: ht-22, 24 h

SMILES	Activity
CCCNC1=N/C(=C\c2ccc3c(c2)OCO3)C(=O)N1C	Non-Toxic

Molecular target: Dual specificity tyrosine-phosphorylation-regulated kinase 1B (Homo sapiens, UniProt Q9Y463)
Sequence (Q9Y463 whole entry): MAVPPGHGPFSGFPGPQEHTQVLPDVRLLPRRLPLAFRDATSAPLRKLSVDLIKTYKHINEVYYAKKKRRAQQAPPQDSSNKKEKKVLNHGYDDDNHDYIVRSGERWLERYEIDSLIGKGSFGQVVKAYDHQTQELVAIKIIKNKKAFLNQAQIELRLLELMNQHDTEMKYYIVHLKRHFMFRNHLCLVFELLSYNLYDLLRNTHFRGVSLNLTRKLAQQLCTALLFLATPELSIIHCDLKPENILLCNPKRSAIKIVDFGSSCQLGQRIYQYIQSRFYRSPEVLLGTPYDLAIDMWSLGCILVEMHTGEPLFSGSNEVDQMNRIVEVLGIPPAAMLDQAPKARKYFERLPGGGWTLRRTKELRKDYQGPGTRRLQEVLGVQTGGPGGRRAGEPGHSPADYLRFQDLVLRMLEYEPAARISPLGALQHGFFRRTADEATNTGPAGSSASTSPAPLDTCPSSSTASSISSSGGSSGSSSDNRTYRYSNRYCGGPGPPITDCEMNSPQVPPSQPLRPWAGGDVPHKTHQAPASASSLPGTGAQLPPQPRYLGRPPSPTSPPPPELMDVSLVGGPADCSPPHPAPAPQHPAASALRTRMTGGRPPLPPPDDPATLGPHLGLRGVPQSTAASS
Conditions: not given

SMILES	IC50
COc1ccc(/C=C2\N=C(Nc3ccccc3)NC2=O)cc1	550 nM
C/C(=C1/N=C(Nc2ccccc2)NC1=O)c1ccc2c(c1)OCO2	> 10000 nM
CCCNC1=N/C(=C\c2ccc3c(c2)OCO3)C(=O)N1C	550 nM

Molecular target: Serine/threonine-protein kinase pim-1 (Homo sapiens, UniProt P11309)
Sequence (P11309 whole entry): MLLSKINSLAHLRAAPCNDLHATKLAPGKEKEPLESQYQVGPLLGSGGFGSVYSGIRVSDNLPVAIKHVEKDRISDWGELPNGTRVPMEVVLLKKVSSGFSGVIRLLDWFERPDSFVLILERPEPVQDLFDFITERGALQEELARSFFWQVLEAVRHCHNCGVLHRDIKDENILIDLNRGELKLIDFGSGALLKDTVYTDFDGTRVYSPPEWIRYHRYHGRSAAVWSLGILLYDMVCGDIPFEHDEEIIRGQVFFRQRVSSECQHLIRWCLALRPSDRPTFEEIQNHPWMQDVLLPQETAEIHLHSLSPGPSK
Experiment: Inhibition of human recombinant Pim1 expressed in Escherichia coli using histone H1 as substrate incubated for 30 mins in presence of ATP by scintillation counting method
Conditions: not given

SMILES	IC50
COc1ccc(/C=C2\N=C(Nc3ccccc3)NC2=O)cc1	≥ 10000 nM
COc1cccc(/C=C2\N=C(Nc3ccccc3)NC2=O)c1	3100 nM
CCCNC1=N/C(=C\c2ccc3c(c2)OCO3)C(=O)N1C	3200 nM

Molecular target: Dual specificity protein kinase CLK1 (Mus musculus, UniProt P22518)
Sequence (P22518 whole entry, the tested form may be a part): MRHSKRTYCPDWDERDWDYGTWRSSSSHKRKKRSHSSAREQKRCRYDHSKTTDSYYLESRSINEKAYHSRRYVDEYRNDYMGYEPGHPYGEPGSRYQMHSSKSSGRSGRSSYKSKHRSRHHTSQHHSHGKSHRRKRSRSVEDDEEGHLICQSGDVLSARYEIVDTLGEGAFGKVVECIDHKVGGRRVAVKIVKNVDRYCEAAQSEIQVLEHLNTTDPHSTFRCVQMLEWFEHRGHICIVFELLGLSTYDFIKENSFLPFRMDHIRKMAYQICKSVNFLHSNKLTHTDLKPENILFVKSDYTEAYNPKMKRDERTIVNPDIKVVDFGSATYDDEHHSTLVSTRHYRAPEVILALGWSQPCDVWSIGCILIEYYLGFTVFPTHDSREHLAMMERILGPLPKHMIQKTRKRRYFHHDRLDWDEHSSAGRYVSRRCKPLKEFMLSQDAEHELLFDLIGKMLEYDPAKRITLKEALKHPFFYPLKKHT
Experiment: Inhibition of GST-fused mouse recombinant CLK1 expressed in Escherichia coli using GRSRSRSRSRSR peptide as substrate incubated for 30 mins in presence of ATP by scintillation counting method
Conditions: not given

SMILES	IC50
COc1ccc(/C=C2\N=C(Nc3ccccc3)NC2=O)cc1	340 nM
C/C(=C1/N=C(Nc2ccccc2)NC1=O)c1ccc2c(c1)OCO2	≥ 10000 nM
COc1cccc(/C=C2\N=C(Nc3ccccc3)NC2=O)c1	≥ 10000 nM
CCCNC1=N/C(=C\c2ccc3c(c2)OCO3)C(=O)N1C	110 nM

Molecular target: T2, Dual specificity tyrosine-phosphorylation-regulated kinase 2 (Homo sapiens, UniProt Q92630)
T2 sequence (Q92630 whole entry): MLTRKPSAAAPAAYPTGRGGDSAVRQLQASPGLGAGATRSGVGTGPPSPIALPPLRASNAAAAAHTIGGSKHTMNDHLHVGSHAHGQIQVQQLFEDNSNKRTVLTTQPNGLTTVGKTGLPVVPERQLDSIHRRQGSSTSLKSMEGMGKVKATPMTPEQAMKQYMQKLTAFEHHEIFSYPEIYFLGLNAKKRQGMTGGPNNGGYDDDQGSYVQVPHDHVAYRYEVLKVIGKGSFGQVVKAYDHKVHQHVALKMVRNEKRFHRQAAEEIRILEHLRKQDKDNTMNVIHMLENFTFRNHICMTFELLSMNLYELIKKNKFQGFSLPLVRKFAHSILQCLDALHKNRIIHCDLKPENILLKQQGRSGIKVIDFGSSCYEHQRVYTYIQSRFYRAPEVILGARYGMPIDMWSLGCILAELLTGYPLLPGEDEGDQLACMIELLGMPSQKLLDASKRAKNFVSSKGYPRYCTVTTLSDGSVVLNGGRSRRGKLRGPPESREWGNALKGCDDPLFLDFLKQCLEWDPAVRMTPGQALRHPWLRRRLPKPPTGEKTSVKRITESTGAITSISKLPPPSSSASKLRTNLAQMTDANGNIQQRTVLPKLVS
Experiment: Inhibition of GST-fused human recombinant DYRK2 expressed in Escherichia coli using GRSRSRSRSRSR peptide as substrate incubated for 30 mins in presence of ATP by scintillation counting method
Conditions: not given

SMILES	IC50
COc1ccc(/C=C2\N=C(Nc3ccccc3)NC2=O)cc1	220 nM
C/C(=C1/N=C(Nc2ccccc2)NC1=O)c1ccc2c(c1)OCO2	1600 nM
COc1cccc(/C=C2\N=C(Nc3ccccc3)NC2=O)c1	> 10000 nM
CCCNC1=N/C(=C\c2ccc3c(c2)OCO3)C(=O)N1C	95 nM

Molecular target: Dual specificity protein kinase CLK4 (Mus musculus, UniProt O35493)
Sequence (O35493 whole entry, the tested form may be a part): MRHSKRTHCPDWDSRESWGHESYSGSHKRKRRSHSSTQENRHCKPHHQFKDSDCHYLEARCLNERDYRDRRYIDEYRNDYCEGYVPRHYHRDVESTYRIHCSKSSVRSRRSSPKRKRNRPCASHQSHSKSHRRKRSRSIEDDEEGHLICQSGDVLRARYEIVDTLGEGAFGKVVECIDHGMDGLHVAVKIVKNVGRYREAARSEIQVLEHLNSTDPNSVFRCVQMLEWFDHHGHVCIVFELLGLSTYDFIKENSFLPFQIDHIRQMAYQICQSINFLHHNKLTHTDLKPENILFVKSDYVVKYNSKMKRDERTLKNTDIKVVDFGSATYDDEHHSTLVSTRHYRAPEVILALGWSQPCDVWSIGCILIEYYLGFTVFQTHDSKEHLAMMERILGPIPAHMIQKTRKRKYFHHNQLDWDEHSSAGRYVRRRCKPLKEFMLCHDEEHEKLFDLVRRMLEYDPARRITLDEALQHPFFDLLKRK
Experiment: Inhibition of GST-fused mouse recombinant CLK4 expressed in Escherichia coli using GRSRSRSRSRSR peptide as substrate incubated for 30 mins in presence of ATP by scintillation counting method
Conditions: not given

SMILES	IC50
COc1ccc(/C=C2\N=C(Nc3ccccc3)NC2=O)cc1	280 nM
C/C(=C1/N=C(Nc2ccccc2)NC1=O)c1ccc2c(c1)OCO2	5900 nM
COc1cccc(/C=C2\N=C(Nc3ccccc3)NC2=O)c1	5000 nM
CCCNC1=N/C(=C\c2ccc3c(c2)OCO3)C(=O)N1C	120 nM

Molecular target: Casein kinase 2 (Homo sapiens, UniProt P67870+P68400+P19784+Q8NEV1)
Experiment: Inhibition of human recombinant CK2 using RRRDDDSDDD peptide as substrate incubated for 30 mins in presence of ATP by scintillation counting method
Assay type: protein assay
Conditions: not given

SMILES	IC50
COc1ccc(/C=C2\N=C(Nc3ccccc3)NC2=O)cc1	2100 nM
CCCNC1=N/C(=C\c2ccc3c(c2)OCO3)C(=O)N1C	> 10000 nM

System: HT-22
Experiment: Neuroprotective activity against glutamate-induced cell death in mouse HT-22 cells treated for 24 hrs by MTS assay
Assay type: functional, cell-based
Conditions: HT-22, 24 h

SMILES	EC50
COc1ccc(/C=C2\N=C(Nc3ccccc3)NC2=O)cc1	5300 nM
COc1cccc(/C=C2\N=C(Nc3ccccc3)NC2=O)c1	7200 nM
CCCNC1=N/C(=C\c2ccc3c(c2)OCO3)C(=O)N1C	> 20000 nM

Molecular target: Cannabinoid receptor 1 (Homo sapiens, UniProt P21554)
Sequence (P21554 whole entry): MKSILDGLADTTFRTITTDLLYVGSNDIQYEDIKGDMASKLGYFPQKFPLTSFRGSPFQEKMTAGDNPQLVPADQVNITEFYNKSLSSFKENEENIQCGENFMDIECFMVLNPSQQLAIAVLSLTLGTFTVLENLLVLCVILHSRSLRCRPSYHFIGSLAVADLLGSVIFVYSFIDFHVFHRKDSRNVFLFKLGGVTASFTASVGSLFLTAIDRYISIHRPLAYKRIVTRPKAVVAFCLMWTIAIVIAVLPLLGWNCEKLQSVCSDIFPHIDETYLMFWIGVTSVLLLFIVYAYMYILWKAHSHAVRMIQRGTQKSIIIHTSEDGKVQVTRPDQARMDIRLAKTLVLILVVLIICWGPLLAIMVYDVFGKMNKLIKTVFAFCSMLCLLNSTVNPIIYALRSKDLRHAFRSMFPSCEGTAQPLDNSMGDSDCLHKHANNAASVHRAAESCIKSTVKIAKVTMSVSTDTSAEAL
Experiment: Antagonist activity at CP-55940-activated CB1 receptor (unknown origin) at 10 uM by beta-arrestin assay relative to control
Assay type: functional
Set-up: scale not given: the % may be the effect or the level left
Conditions: not given

SMILES	Activity
C/C(=C1/N=C(Nc2ccccc2)NC1=O)c1ccc2c(c1)OCO2	-42.1%
CCCNC1=N/C(=C\c2ccc3c(c2)OCO3)C(=O)N1C	-15.8%

Same assay, conditions: filed as antagonist

SMILES	Activity
COc1ccc(/C=C2\N=C(Nc3ccccc3)NC2=O)cc1	92.2%
COc1cccc(/C=C2\N=C(Nc3ccccc3)NC2=O)c1	71.9%

System: U2OS
Experiment: Induction of PI3K/mTor-dependent autophagy in human U2OS cells assessed as number of LC3 foci per cell at 10 uM measured after 4 hrs
Assay type: cell-based
Conditions: filed as activator

SMILES	Activity
COc1ccc(/C=C2\N=C(Nc3ccccc3)NC2=O)cc1	5.8
C/C(=C1/N=C(Nc2ccccc2)NC1=O)c1ccc2c(c1)OCO2	5.8
COc1cccc(/C=C2\N=C(Nc3ccccc3)NC2=O)c1	5.7
CCCNC1=N/C(=C\c2ccc3c(c2)OCO3)C(=O)N1C	6.8

System: not listed separately
Experiment: Neurotoxicity against mouse HT-22 cells assessed as cell survival treated for 24 hrs by MTS assay
Assay type: toxicity, cell-based
Conditions: not given

SMILES	IC50 at 24 h	EC50 at 24 h
COc1ccc(/C=C2\N=C(Nc3ccccc3)NC2=O)cc1	> 20000 nM	
C/C(=C1/N=C(Nc2ccccc2)NC1=O)c1ccc2c(c1)OCO2	> 20000 nM	
COc1cccc(/C=C2\N=C(Nc3ccccc3)NC2=O)c1		> 20000 nM

Molecular target: Dual specificity protein kinase CLK2 (Mus musculus, UniProt O35491)
Sequence (O35491 whole entry, the tested form may be a part): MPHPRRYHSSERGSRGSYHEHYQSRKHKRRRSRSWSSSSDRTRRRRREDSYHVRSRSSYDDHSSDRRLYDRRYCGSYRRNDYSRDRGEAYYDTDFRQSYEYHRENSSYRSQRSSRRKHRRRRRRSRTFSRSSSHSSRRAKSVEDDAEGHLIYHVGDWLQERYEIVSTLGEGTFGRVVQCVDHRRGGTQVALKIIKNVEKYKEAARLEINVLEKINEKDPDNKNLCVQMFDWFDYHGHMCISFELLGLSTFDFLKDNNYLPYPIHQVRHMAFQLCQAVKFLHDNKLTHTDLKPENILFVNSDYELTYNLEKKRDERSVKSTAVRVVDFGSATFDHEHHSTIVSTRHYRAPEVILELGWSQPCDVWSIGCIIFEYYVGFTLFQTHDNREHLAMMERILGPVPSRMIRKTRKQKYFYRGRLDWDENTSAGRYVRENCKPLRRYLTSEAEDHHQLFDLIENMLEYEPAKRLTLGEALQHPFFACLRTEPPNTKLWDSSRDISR
Experiment: Inhibition of mouse recombinant GST-fused CLK2 expressed in Escherichia coli using GRSRSRSRSRSR peptide as substrate incubated for 30 mins in presence of ATP by scintillation counting method
Conditions: not given

SMILES	IC50
COc1ccc(/C=C2\N=C(Nc3ccccc3)NC2=O)cc1	> 10000 nM
C/C(=C1/N=C(Nc2ccccc2)NC1=O)c1ccc2c(c1)OCO2	> 10000 nM
COc1cccc(/C=C2\N=C(Nc3ccccc3)NC2=O)c1	> 10000 nM
CCCNC1=N/C(=C\c2ccc3c(c2)OCO3)C(=O)N1C	560 nM

Molecular target: Dual specificity tyrosine-phosphorylation-regulated kinase 1A (Homo sapiens, UniProt Q13627)
Experiment: Inhibition of GST-fused human recombinant DYRK1A expressed in Escherichia coli using GRSRSRSRSRSR peptide as substrate incubated for 30 mins in presence of ATP by scintillation counting method
Conditions: not given

SMILES	IC50
COc1ccc(/C=C2\N=C(Nc3ccccc3)NC2=O)cc1	170 nM
C/C(=C1/N=C(Nc2ccccc2)NC1=O)c1ccc2c(c1)OCO2	8500 nM
COc1cccc(/C=C2\N=C(Nc3ccccc3)NC2=O)c1	> 10000 nM
CCCNC1=N/C(=C\c2ccc3c(c2)OCO3)C(=O)N1C	460 nM
